Consider one compound from patent US20060100190A1, “Motexafin lutetium phototherapy with low fluences for treating vascular inflammation” (Pharmacyclics, Inc., priority 2004, published 2006).

One assay has as its system atheroma. Conditions: reported; cited from earlier work.
Assay [1] concerns Fat-fed New Zealand rabbits. Description: MLu phototherapy at low light fluence in fat-fed New Zealand rabbits. Type of assay: in vivo, rabbit. The following applies: PT at 732 nm, low light fluence 30-100 J/cmf. The source says: The methods, compositions, strategies and techniques described herein include processes to treat diffuse inflammation in blood vessels by administering a photo-activatable compound and low light fluence in the range of in the range of about 10 to about 400 Joules/cm of illuminated length in the general vicinity of the inflammation.

Assay [2] relates to Watanabe Heritable Hyperlipidemic (WHHL) rabbits. Description: MLu phototherapy (732 nm, low fluences) of aortic atheroma in cholesterol-fed WHHL rabbits. The assay is classed as in vivo, rabbit. The text has this: FIG. 1 depicts treated segments of the rabbit aortic tree. In each rabbit, both T1 and T2 segments were about 30 mm in length with another 30 mm of buffer in between. Both T1 and T2 received the same fluence (J/cmf) at different fluence rates (mW/cmf) because T1 illumination period was shorter at 400 seconds compared to 900 seconds for T2.
Thirty 8 months old male Watanabe Heritable Hyperlipidemic (WHHL) rabbits were randomized after 3 weeks of 1% cholesterol feeding to either control or MLu groups (10 mg/kg, iv via ear vein). Intravascular illumination was performed 24 hours post-MLu using a fiber with a 30 mm active diffuser tip to deliver escalating fluences (30-175 J/cmf, 732 nm) for 400 s (upper) and 900 s (lower thoracic/abdominal aorta); control received no light. Rabbits were then switched to a normal diet immediately after phototherapy and sacrificed 3 weeks later. Aortas were harvested and examined for plaque (I/M ratios), Mac (RAM11), smooth muscle cell (myosin) and collagen (Picrosirius Red) changes.

Molecules are shown by their SMILES.

Consider `CC(=O)[O-].CC(=O)[O-].CCc1c(CC)c2cc3nc(cnc4cc(OCCOCCOCCOC)c(OCCOCCOCCOC)cc4ncc4nc(cc1[n-]2)C(CCCO)=C4C)C(C)=C3CCCO.O.[Lu+3]` [MLu, motexafin lutetium], for which the “effect on macrophages (Mac) following phototherapy (PT)” value with atheroma was “destroys Mac by inducing apoptosis”. Moreover, the “diffuse inflammation in blood vessels (based on decrease in macrophage burden)” value in assay [1] is listed as “significant reduction in diffuse inflammation”. In assay [2] (30-175 J/cmf delivered over 400 s and 900 s), the macrophages in plaques entry was “macrophage depletion”. Further, the macrophage burden entry in assay [2] (all tested fluence groups (30-175 J/cmf) vs. control, p<0.05, both T1 and T2 treated segments) is “statistical significant reduction in macrophage burden”. The “collagen (picrosirius red, bright-field and polarization microscopy)” value in assay [2] (treated 30 J/cmf, 400 s vs. control) is recorded as “denser packing of matured collagen”. Also, in assay [2] (treated 30 J/cmf, 400 s vs. control (non-phototherapy)), the “smooth muscle cell (SMC) content, histology of myosin-stained areas” value is reported as “did not appear to decrease”. Besides, in assay [2] (treated sections, 30 J/cmf, 400 s, control 43.1±3.8%), the “SMC content (myosin positive areas), planimetry, % of the intima” value is on record as 50.9±9.7%.
